{"source": "patent US9790169B2", "about": "“IDO inhibitors” (BRISTOL-MYERS SQUIBB COMPANY, priority 2015, dated 2017)", "note": "pIC50: −log10 of the molar value."}
{"molecular_target": "human IDO1 (Homo sapiens, UniProt P14902)", "sequence (P14902 whole entry)": "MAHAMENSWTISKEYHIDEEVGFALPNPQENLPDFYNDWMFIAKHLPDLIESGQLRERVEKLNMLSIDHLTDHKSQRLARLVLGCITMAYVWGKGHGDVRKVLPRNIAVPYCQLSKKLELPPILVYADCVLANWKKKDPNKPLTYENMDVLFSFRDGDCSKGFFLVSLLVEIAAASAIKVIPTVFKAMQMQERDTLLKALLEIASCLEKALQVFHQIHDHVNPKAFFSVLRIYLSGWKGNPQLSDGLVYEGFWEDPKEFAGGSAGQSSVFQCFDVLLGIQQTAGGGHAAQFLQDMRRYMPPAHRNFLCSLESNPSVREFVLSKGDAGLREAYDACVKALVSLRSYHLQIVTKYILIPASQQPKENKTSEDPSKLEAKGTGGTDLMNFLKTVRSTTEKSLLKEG", "assay": "Assessment of human IDO-1 inhibitory activity in Hela cells (Interferon-gamma stimulated HeLa cells, Ehrlich reagent, absorbance 490 nm)", "format": "cell-based", "design": "endogenous in cells; host or cells: HeLa cells stimulated with interferon-gamma", "details": "Hela Human IDO-1 cellular assay", "procedure,_shortened": "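IDO activity induced by 18 h IFN-γ (human 10 ng/ml or murine 5 ng/ml, final) after 1 h compound pre-treatment of HeLa cells at 37 °C. Supernatant kynurenine detected via Ehrlich reagent absorbance at 490 nm following 3% TCA at 50 °C; IC50 set against no-IFN-γ and untreated-stimulated controls.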"}
{"smiles": "CCCN(c1ccc(C(CC)CC(=O)O)cc1NC(=O)Nc1ccc(C)cc1)C1CCOCC1", "note": "(single isomer, unassigned) [Example 557 Enantiomer 1, 3-(4-(Propyl(tetrahydro-2H-pyran-4-yl)amino)-3-(3-(p-tolyl)ureido)phenyl)pentanoic acid]", "pIC50": "> 7.30"}
{"smiles": "CCCN(c1ccc([C@H](CC)CC(=O)O)cc1Nc1ccc2c(c1)OC(F)(F)O2)C1CCOCC1", "note": "(single isomer, unassigned) [Example 550]", "pIC50": "> 8.30"}
{"smiles": "COCCN(c1ccc(C(C)(C)CC(=O)O)cc1Nc1ccc(Cl)cc1)C1CCOCC1", "note": "[Example 15, 3-(3-((4-Chlorophenyl)amino)-4-((2-methoxyethyl)(tetrahydro-2H-pyran-4-yl)amino)phenyl)-3-methylbutanoic acid]", "pIC50": "> 8.30"}
{"smiles": "CCOc1ncc(Nc2cc(C(CC)CC(=O)O)cnc2N(CC(C)C)CC(C)C)cn1", "note": "(racemic) [Example 1376, (+/−)-3-(6-(Diisobutylamino)-5-((2-ethoxypyrimidin-5-yl)amino)pyridin-3-yl)pentanoic acid]", "pIC50": "> 8.30"}
{"smiles": "CCN(c1ccc([C@@H](COC)CC(=O)O)cc1Nc1ccc(C#N)cc1C)C1CCOCC1", "note": "(single isomer, unassigned) [Example 367]", "pIC50": "> 7.30"}
{"smiles": "COCC(CC(=O)O)c1ccc(N2CCOC(C)C2)c(Nc2ccc(C#N)cc2)c1", "note": "(single isomer, unassigned) [Example 1312, 3-(3-((4-cyanophenyl)amino)-4-(2-methylmorpholino)phenyl)-4-methoxybutanoic acid]", "pIC50": "< 7.30"}
{"smiles": "CCCN(c1ccc(C(C)(C)CC(=O)O)cc1NC(=O)Nc1ccc(C#N)cc1)C1CCS(=O)(=O)CC1", "note": "[Example 190, 3-(3-(3-(4-Cyanophenyl)ureido)-4-((1,1-dioxidotetrahydro-2H-thiopyran-4-yl)(propyl)amino)phenyl)-3-methylbutanoic acid]", "pIC50": "< 7.30"}
{"smiles": "CCC1COCCN1c1ccc([C@@H](COC)CC(=O)O)cc1Nc1cnc(OC)nc1", "note": "(single isomer, unassigned) [Example 1284]", "pIC50": "< 7.30"}
{"smiles": "CCOc1cc(Nc2cc([C@@H](COC)CC(=O)O)ccc2N(CC)C2CCOCC2)ccc1C#N", "note": "(single isomer, unassigned) [Example 370]", "pIC50": "> 7.30"}
{"smiles": "CCCN(c1ccc([C@H](CC)CC(=O)O)cc1Nc1cnc(OCC)nc1)C1CCOCC1", "note": "(single isomer, unassigned) [Example 546]", "pIC50": "> 8.30"}
{"smiles": "CCOc1ncc(Nc2cc(C3(CC(=O)O)CCOCC3)ccc2N(CC)C2CCOCC2)cn1", "note": "[Example 153, 2-(4-(3-((2-Ethoxypyrimidin-5-yl)amino)-4-(ethyl(tetrahydro-2H-pyran-4-yl)amino)phenyl)tetrahydro-2H-pyran-4-yl)acetic acid]", "pIC50": "< 7.30"}
{"smiles": "CCCN(c1ccc(C(CC)CC(=O)O)cc1NC(=O)Nc1ccc(C)cc1)C1CCOCC1", "note": "(single isomer, unassigned) [Example 557 Enantiomer 2, 3-(4-(Propyl(tetrahydro-2H-pyran-4-yl)amino)-3-(3-(p-tolyl)ureido)phenyl)pentanoic acid]", "pIC50": "> 8.30"}
{"smiles": "CCC(CC(=O)O)c1ccc(N(CC)C2CCN(Cc3ccccc3)CC2)c(Nc2ccc(C#N)cc2)c1", "note": "(single isomer, unassigned) [Example 940, 3-(4-((1-benzyl-piperidin-4-yl)(ethyl)amino)-3-((4-cyano-phenyl)amino)phenyl) pentanoic acid]", "pIC50": "> 8.30"}
{"smiles": "COCC(CC(=O)O)c1ccc(N2CCOC[C@@H]2C(C)C)c(Nc2ccc(Cl)cc2)c1", "note": "(single isomer, unassigned) [Example 930]", "pIC50": "> 7.30"}
{"smiles": "CCCN(c1ccc([C@H](CC)CC(=O)O)cc1Nc1cnc(OC)nc1)C1CCOCC1", "note": "(single isomer, unassigned) [Example 551]", "pIC50": "> 8.30"}
{"smiles": "CCC(CC(=O)O)c1ccc(N2C[C@@H]3C[C@H]2CN3CC(F)F)c(Nc2ccc(C#N)cc2)c1", "note": "(single isomer, unassigned) [Example 450]", "pIC50": "< 7.30"}
{"smiles": "CCN(c1c(F)cc(C(COC)CC(=O)O)cc1NC(=O)Nc1ccc(Cl)cc1F)C1CCOCC1", "note": "(single isomer, unassigned) [Example 919, 3-(3-(3-(4-Chloro-2-fluorophenyl)ureido)-4-(ethyl(tetrahydro-2H-pyran-4-yl)amino)-5-fluorophenyl)-4-methoxybutanoic acid]", "pIC50": "< 7.30"}
{"smiles": "CCN(c1cc(F)c(C(COC)CC(=O)O)cc1Nc1ccc(C#N)c(F)c1)C1CCOCC1", "note": "(single isomer, unassigned) [Example 846, 3-(5-((4-cyano-3-fluorophenyl)amino)-4-(ethyl (tetrahydro-2H-pyran-4-yl)amino)-2-fluorophenyl)-4-methoxybutanoic acid]", "pIC50": "> 8.30"}
{"smiles": "CCOc1cnc(Nc2cc([C@H](CC)CC(=O)O)ccc2N(CC)C2CCOCC2)cn1", "note": "(single isomer, unassigned) [Example 508]", "pIC50": "> 8.30"}
{"smiles": "CCN(c1ccc(C(CC(=O)O)C2CC2)cc1Nc1ccc(C#N)cc1)C1CCOCC1", "note": "(single isomer, unassigned) [Example 34, 3-(3-((4-cyanophenyl)amino)-4-(ethyl(tetrahydro-2H-pyran-4-yl)amino)phenyl)-3-cyclopropylpropanoic acid]", "pIC50": "> 8.30"}
{"smiles": "CCC(CC(=O)O)c1ccc(N2CCN(C(=O)OC(C)(C)C)CC2)c(Nc2ccc(C#N)cc2)c1", "note": "(single isomer, unassigned) [Example 674 Enantiomer 1, 3-(4-(4-(tert-Butoxycarbonyl)piperazin-1-yl)-3-((4-cyanophenyl)amino)phenyl)pentanoic acid]", "pIC50": "> 7.30"}
{"smiles": "CCCN(c1ccc(C(C)(C)CC(=O)O)cc1Nc1cnc(OC)nc1)C1CCOCC1", "note": "[Example 23, 3-(3-((2-methoxypyrimidin-5-yl)amino)-4-(propyl(tetrahydro-2H-pyran-4-yl)amino)phenyl)-3-methylbutanoic acid]", "pIC50": "> 7.30"}
{"smiles": "CCN(c1ccc(C(CC(=O)O)C2CC2)cc1Nc1ccc(OC)nc1)C1CCS(=O)(=O)CC1", "note": "(single isomer, unassigned) [Example 342, 3-cyclopropyl-3-(4-((1,1-dioxidotetrahydro-2H-thiopyran-4-yl)(ethyl)amino)-3-((6-methoxypyridin-3-yl)amino)phenyl)propanoic acid]", "pIC50": "> 7.30"}
{"smiles": "COCC(CC(=O)O)c1ccc(N2C[C@@H](C)O[C@@H](C)C2)c(NC(=O)Nc2ccc(Cl)cc2F)c1", "note": "(single isomer, unassigned) [Example 606]", "pIC50": "< 7.30"}
{"smiles": "COCC(CC(=O)O)c1ccc(N2CCOC[C@H]2C(C)C)c(Nc2ccc(Cl)cc2)c1", "note": "(single isomer, unassigned) [Example 910]", "pIC50": "> 7.30"}
{"smiles": "CCCN(c1ccc([C@H](COC)CC(=O)O)cc1NC(=O)Nc1ccc(C#N)cc1)C1CCOCC1", "note": "(single isomer, unassigned) [Example 577]", "pIC50": "< 7.30"}
{"smiles": "CCC(CC(=O)O)c1ccc(N(C)C2CCOCC2)c(Nc2cnc(OC)nc2)c1", "note": "(single isomer, unassigned) [Example 871, 3-(3-((2-methoxy-pyrimidin-5-yl)amino)-4-(methyl(tetra-hydro-2H-pyran-4-yl)amino)phenyl) pentanoic acid]", "pIC50": "< 7.30"}
{"smiles": "CCC(CC(=O)O)c1ccc(N2CCOCC2)c(Nc2ccc(C#N)cc2)c1", "note": "(single isomer, unassigned) [Example 6 Enantiomer 1, 3-(3-((4-Cyanophenyl)amino)-4-morpholinophenyl)pentanoic acid]", "pIC50": "< 7.30"}
{"smiles": "CCCN(c1ccc(C(CC)CC(=O)O)cc1Nc1cnc(OCC)nc1)C1CCS(=O)(=O)CC1", "note": "(single isomer, unassigned) [Example 13 Enantiomer 1, 3-(4-((1,1-Dioxidotetrahydro-2h-thiopyran-4-yl)(propyl)amino)-3-((2-ethoxypyrimidin-5-yl)amino)phenyl)pentanoic acid]", "pIC50": "> 7.30"}
{"smiles": "CCC(CC(=O)O)c1ccc(N2CCOC[C@H]2C(C)C)c(Nc2ccc(C#N)cc2)c1", "note": "(single isomer, unassigned) [Example 887]", "pIC50": "> 8.30"}
{"smiles": "CCOc1ncc(Nc2cc(C(CC)CC(=O)O)ccc2N2CCNCC2)cn1", "note": "(single isomer, unassigned) [Example 672, 3-(3-((2-Ethoxypyrimidin-5-yl)amino)-4-(piperazin-1-yl)phenyl)pentanoic acid]", "pIC50": "< 7.30"}
{"smiles": "CCOc1ncc(Nc2cc([C@H](CC)CNS(=O)(=O)CC)ccc2N(CC)C2CCOCC2)cn1", "note": "[Example 1325, (S)-N-(2-(3-((2-Ethoxypyrimidin-5-yl)amino)-4-(ethyl(tetrahydro-2H-pyran-4-yl)amino)phenyl)butyl)ethanesulfonamide]", "pIC50": "> 7.30"}
{"smiles": "COCC(CC(=O)O)c1ccc(N2CCC(c3ccccc3)CC2)c(NC(=O)Nc2ccc(Cl)cc2F)c1", "note": "(single isomer, unassigned) [Example 1357 E1, 3-(3-(3-(4-Chloro-2-fluorophenyl)ureido)-4-(4-phenylpiperidin-1-yl)phenyl)-4-methoxybutanoic acid]", "pIC50": "< 7.30"}
{"smiles": "CCOc1ncc(Nc2cc(C(CC)CC(=O)O)ccc2N2CCOCC2)cn1", "note": "(single isomer, unassigned) [Example 7 Enantiomer 2, 3-(3-((2-Ethoxypyrimidin-5-yl)amino)-4-morpholinophenyl)pentanoic acid]", "pIC50": "< 7.30"}
{"smiles": "CCN(c1ccc([C@H](CNS(=O)(=O)C(F)(F)F)COC)cc1Nc1ccc(C#N)cc1)C1CCOCC1", "note": "[Example 1342, (R)-N-(2-(3-((4-cyanophenyl)amino)-4-(ethyl(tetrahydro-2H-pyran-4-yl)amino)phenyl)-3-methoxypropyl)-1,1,1-trifluoromethanesulfonamide]", "pIC50": "> 7.30"}
{"smiles": "CCN(c1ccc(C(CC(=O)O)C2CC2)cc1NC(=O)Nc1ccc(C)cc1)C1CCOCC1", "note": "(single isomer, unassigned) [Example 40 Enantiomer 1, 3-Cyclopropyl-3-(4-(ethyl(tetrahydro-2H-pyran-4-yl)amino)-3-(3-(p-tolyl)ureido)phenyl)propanoic acid]", "pIC50": "> 8.30"}
{"smiles": "COCC(CC(=O)O)c1ccc(N2CCOC[C@H]2C(C)C)c(Nc2ccc(C#N)cc2)c1", "note": "(single isomer, unassigned) [Example 912]", "pIC50": "> 8.30"}
{"smiles": "CCCN(c1ccc([C@H](CC)CC(=O)O)cc1NC(=O)Nc1ccc(Cl)cc1F)C1CCOCC1", "note": "(single isomer, unassigned) [Example 555]", "pIC50": "> 8.30"}
